Measurements taken from ChEMBL document CHEMBL5512696, “Discovery of a Novel ASM Direct Inhibitor with a 1,5-Diphenyl-pyrazole Scaffold and Its Antidepressant Mechanism of Action” (J Med Chem, 2024).
The source made the active and inactive calls. The calls are words filed in the database; no cut-off is given here.

How the values were obtained:
[1] = Cmax in male ICR mouse at 10 mg/kg, ip measured upto 480 mins by LC-MS/MS analysis; format: ADME, organism-based; details: in vivo
[2] = Neurotoxicity against human SH-SY5Y cells assessed as reduction in cell viability at 100 uM by CCK-8 assay; format: toxicity, cell-based
SH-SY5Y [3] = experiment: Neuroprotective activity against corticosterone induced human SH-SY5Y cells assessed as protection against corticosterone induced morphological changes measured after 24 hrs; format: functional, cell-based; details: dose 5-20 µM
Mus musculus [4] = organism: Mus musculus; details: ICR, dose 6-12 mg/kg, route ip, time 2.0 weeks
Description: In vivo inhibition of ASM in ICR mouse model of chronic unpredictable mild stress assessed as increase in 5-HT uptake in hippocampus at 6 to 12 mg/kg, ip administered once a day for 1 week post 8 week of chronic unpredictable mild stress and measured after 1 week by ELISA

Mus musculus [5] = experiment: Antidepressant activity in ICR mouse model of chronic unpredictable mild stress assessed as reduction in oxidative stress by measuring reduction in MDA level in cerebral cortex at 6 to 12 mg/kg, ip administered once a day for 1 week post 8 week of chronic unpredictable mild stress and measured after 1 week by ELISA; format: functional, organism-based; details: dose 6-12 mg/kg, time 2.0 weeks
[6] = Neurotoxicity against human SH-SY5Y cells assessed as reduction in cell viability at 5 to 20 uM by CCK-8 assay; format: toxicity, cell-based; details: dose 5-20 µM
[7] = Drug concentration in male ICR mouse plasma at 1 mg/kg, iv measured after 60 mins by LC-MS/MS analysis; format: ADME, organism-based
Mus musculus [8] = experiment: (§1) Antidepressant activity in ip dosed ICR mouse model of chronic unpredictable mild stress assessed as downregulation of neuronal apoptosis by measuring reduction in caspase-9 protein level in hippocampus administered once a day for 1 week post 8 week of chronic unpredictable mild stress and measured after 1 week by Western blot analysis; format: functional, organism-based; details: dose 6-24 mg/kg, time 2.0 weeks
[9] = Neurotoxicity against human SH-SY5Y cells assessed as cell survival rate at 5 to 20 uM by CCK-8 assay relative to control; format: toxicity, cell-based; details: dose 5-20 µM, read-out: Survival
Mus musculus [10] = experiment: (§2) Antidepressant activity in ip dosed ICR mouse model of chronic unpredictable mild stress assessed as reduction in sphingosine-1-phosphate level in hippocampus administered once a day for 1 week post 8 week of chronic unpredictable mild stress and measured after 1 week by ELISA; format: functional, organism-based; details: dose 6-12 mg/kg, time 2.0 weeks
[11] = AUC (0 to t) in male ICR mouse at 10 mg/kg, ip measured upto 480 mins by LC-MS/MS analysis; format: ADME, organism-based; details: in vivo
Mus musculus [12] = experiment: Antineuroinflammatory activity in ip dosed ICR mouse model of chronic unpredictable mild stress assessed as reduction in TNFalpha level in serum administered once a day for 1 week post 8 week of chronic unpredictable mild stress and measured after 1 week by ELISA; format: functional, organism-based; details: dose 6-12 mg/kg, time 2.0 weeks
[13] = Metabolic stability in human liver microsomes assessed as half life at 1 uM incubated for 60 mins by LC-MS/MS analysis; format: ADME, Microsome
Mus musculus [14] = experiment: as §2, with “oxidative stress by measuring increase in GSH” for “sphingosine-1-phosphate”, “cerebral cortex” for “hippocampus”; format: functional, organism-based; details: dose 6-12 mg/kg, time 2.0 weeks
Mus musculus [15] = experiment: as §1, with “caspase-3” for “caspase-9”; format: functional, organism-based; details: dose 6-24 mg/kg, time 2.0 weeks
Mus musculus [16] = experiment: Antineuroinflammatory activity in ip dosed ICR mouse model of chronic unpredictable mild stress assessed as reduction in IL-1beta level in serum administered once a day for 1 week post 8 week of chronic unpredictable mild stress and measured after 1 week by ELISA; format: functional, organism-based; details: dose 6-12 mg/kg, time 2.0 weeks
[17] = Half life in male ICR mouse at 10 mg/kg, ip measured upto 480 mins by LC-MS/MS analysis; format: ADME, organism-based; details: in vivo
[18] = Observed apparent volume of distribution in male ICR mouse at 1 mg/kg, iv measured upto 480 mins by LC-MS/MS analysis; format: ADME, organism-based; details: in vivo, 8 h
[19] = Observed clearance in male ICR mouse at 1 mg/kg, iv measured upto 480 mins by LC-MS/MS analysis; format: ADME, organism-based; details: in vivo, 8 h
[20] = Ratio of drug concentration in male ICR mouse brain to plasma at 1 mg/kg, iv measured after 60 mins by LC-MS/MS analysis; format: ADME, organism-based; details: read-out: BPR
Mus musculus [21] = organism: Mus musculus; details: ICR, dose 6-24 mg/kg, route ip, time 2.0 weeks
Description: In vivo inhibition of ASM in ip dosed ICR mouse model of chronic unpredictable mild stress assessed as reduction in ASM activity in hippocampus administered once a day for 1 week post 8 week of chronic unpredictable mild stress and measured after 1 week by fluorescence based analysis

[22] = AUC (0 to infinity) in male ICR mouse at 10 mg/kg, ip measured upto 480 mins by LC-MS/MS analysis; format: ADME, organism-based; details: in vivo
Mus musculus [23] = experiment: Improvement in depression-like behavior in ICR mouse model of chronic unpredictable mild stress assessed as reduction in immobility time at 6 to 24 mg/kg, ip administered once a day for 10 days post 8 week of chronic unpredictable mild stress by forced swim test; format: functional, organism-based; details: dose 6-24 mg/kg, time 10.0 day
[24] = Drug concentration in male ICR mouse plasma at 1 mg/kg, iv measured after 30 mins by LC-MS/MS analysis; format: ADME, organism-based
[25] = AUC (0 to t) in male ICR mouse at 1 mg/kg, iv measured upto 480 mins by LC-MS/MS analysis; format: ADME, organism-based; details: in vivo
[26] = Ratio of drug concentration in male ICR mouse brain to plasma at 1 mg/kg, iv measured after 30 mins by LC-MS/MS analysis; format: ADME, organism-based; details: read-out: BPR
Mus musculus [27] = experiment: Antidepressant activity in ICR mouse model of chronic unpredictable mild stress assessed as reduction in ceramide level in hippocampus at 6 to 12 mg/kg, ip administered once a day for 1 week post 8 week of chronic unpredictable mild stress and measured after 1 week by ELISA; format: functional, organism-based; details: dose 6-12 mg/kg, time 2.0 weeks
Mus musculus [28] = experiment: as §2, with “oxidative stress by measuring increase in SOD” for “sphingosine-1-phosphate”, “cerebral cortex” for “hippocampus”; format: functional, organism-based; details: dose 6-12 mg/kg, time 2.0 weeks
[29] = Observed MRT (0 to infinity) in male ICR mouse at 1 mg/kg, iv measured upto 480 mins by LC-MS/MS analysis; format: ADME, organism-based; details: in vivo
[30] = Metabolic stability in human liver microsomes assessed as intrinsic clearance at 1 uM incubated for 60 mins by LC-MS/MS analysis; format: ADME, Microsome; details: read-out: CLH
Mus musculus [31] = experiment: Antidepressant activity in ICR mouse model of chronic unpredictable mild stress assessed as reduction in sphingomyelin level in hippocampus at 12 mg/kg, ip administered once a day for 1 week post 8 week of chronic unpredictable mild stress and measured after 1 week by ELISA; format: functional, organism-based; details: time 2.0 weeks
Mus musculus [32] = experiment: as §1, with “in” for “in ip dosed”, “improvement” for “reduction”, “Bcl-2/Bax ratio” for “caspase-9 protein level”, “hippocampus at 6 to 24 mg/kg, ip” for “hippocampus”; format: functional, organism-based; details: dose 6-24 mg/kg, time 2.0 weeks
Mus musculus [33] = experiment: Improvement in depression-like behavior in ICR mouse model of chronic unpredictable mild stress assessed as reduction in immobility time at 6 to 24 mg/kg, ip administered once a day for 10 days post 8 week of chronic unpredictable mild stress by tail suspension test; format: functional, organism-based; details: dose 6-24 mg/kg, time 10.0 day
[34] = Drug concentration in male ICR mouse brain at 1 mg/kg, iv measured after 30 mins by LC-MS/MS analysis; format: ADME, organism-based; details: read-out: Ct
[35] = AUC (0 to infinity) in male ICR mouse at 1 mg/kg, iv measured upto 480 mins by LC-MS/MS analysis; format: ADME, organism-based; details: in vivo, 8 h
Mus musculus [36] = experiment: Antidepressant activity in ICR mouse model of chronic unpredictable mild stress assessed as reduction in sphingomyelin level in hippocampus at 6 to 12 mg/kg, ip administered once a day for 1 week post 8 week of chronic unpredictable mild stress and measured after 1 week by ELISA; format: functional, organism-based; details: dose 6-12 mg/kg, time 2.0 weeks
[37] = Cmax in male ICR mouse at 1 mg/kg, iv measured upto 480 mins by LC-MS/MS analysis; format: ADME, organism-based; details: in vivo
[38] = Half life in male ICR mouse at 1 mg/kg, iv measured upto 480 mins by LC-MS/MS analysis; format: ADME, organism-based; details: in vivo, 8 h
Mus musculus [39] = experiment: Antidepressant activity in ip dosed ICR mouse model of chronic unpredictable mild stress assessed as reduction in sphingosine-1-phosphate level in cerebral cortex administered once a day for 1 week post 8 week of chronic unpredictable mild stress and measured after 1 week by ELISA; format: functional, organism-based; details: dose 6-12 mg/kg, time 2.0 weeks
Mus musculus [40] = experiment: Improvement in depression-like behavior in ip dosed ICR mouse model of chronic unpredictable mild stress assessed as improvement in sugar consumption administered once a day for 10 days post 8 week of chronic unpredictable mild stress by sugar preference test; format: functional, organism-based; details: dose 6-24 mg/kg, time 10.0 day
[41] = Bioavailability in male ICR mouse at 1 mg/kg, iv measured upto 480 mins by LC-MS/MS analysis; format: ADME, organism-based; details: in vivo
[42] = Tmax in male ICR mouse at 1 mg/kg, iv measured upto 480 mins by LC-MS/MS analysis; format: ADME, organism-based; details: in vivo
Mus musculus [43] = experiment: Improvement in depression-like behavior in ICR mouse model of chronic unpredictable mild stress assessed as increase in total distance traveled in center at 6 to 24 mg/kg, ip administered once a day for 10 days post 8 week of chronic unpredictable mild stress by open field test; format: functional, organism-based; details: dose 6-24 mg/kg, time 10.0 day
SH-SY5Y [44] = experiment: Neuroprotective activity against corticosterone induced human SH-SY5Y cells assessed as protection against corticosterone induced cell damage measured after 24 hrs by CCK-8 assay; format: functional, cell-based; details: dose 5-20 µM
Mus musculus [45] = experiment: Antidepressant activity in ICR mouse model of chronic unpredictable mild stress assessed as reduction in sphingomyelin level in cerebral cortex at 6 to 12 mg/kg, ip administered once a day for 1 week post 8 week of chronic unpredictable mild stress and measured after 1 week by ELISA; format: functional, organism-based; details: dose 6-12 mg/kg, time 2.0 weeks
Mus musculus [46] = experiment: Antineuroinflammatory activity in ip dosed ICR mouse model of chronic unpredictable mild stress assessed as reduction in IL-6 level in serum administered once a day for 1 week post 8 week of chronic unpredictable mild stress and measured after 1 week by ELISA; format: functional, organism-based; details: dose 6-12 mg/kg, time 2.0 weeks
[47] = Drug concentration in male ICR mouse brain at 1 mg/kg, iv measured after 60 mins by LC-MS/MS analysis; format: ADME, organism-based; details: read-out: Ct
Mus musculus [48] = experiment: as §1, with “in” for “in ip dosed”, “increase” for “reduction”, “BDNF” for “caspase-9”, “hippocampus at 6 to 24 mg/kg, ip” for “hippocampus”; format: functional, organism-based; details: dose 6-24 mg/kg, time 2.0 weeks
[49] = Observed MRT (0 to infinity) in male ICR mouse at 10 mg/kg, ip measured upto 480 mins by LC-MS/MS analysis; format: ADME, organism-based; details: in vivo
Mus musculus [50] = experiment: Antidepressant activity in ICR mouse model of chronic unpredictable mild stress assessed as reduction in ceramide level in cerebral cortex at 6 to 12 mg/kg, ip administered once a day for 1 week post 8 week of chronic unpredictable mild stress and measured after 1 week by ELISA; format: functional, organism-based; details: dose 6-12 mg/kg, time 2.0 weeks

O=C(NO)c1cc(-c2ccc(Br)cc2)n(-c2ccc(Cl)cc2)n1
Cmax [1]: 4200 ng/mL
Activity [2]: Toxic
Activity (SH-SY5Y [3]): Dose-Dependent Effect
inhibition (Mus musculus [4]): Active
Activity (Mus musculus [5]): Active
Activity [6]: Non-Toxic
concentration at 1 h [7]: 55.6 ng/mL
Activity (Mus musculus [8]): Dose-Dependent Effect
viability [9]: > 78%
Activity (Mus musculus [10]): Dose-Dependent Effect
AUC(0-t) at 8 h [11]: 3640 ng·h/mL
Activity (Mus musculus [12]): Dose-Dependent Effect
half-life at 1 µM [13]: 111 min
Activity (Mus musculus [14]): Dose-Dependent Effect
Activity (Mus musculus [15]): Dose-Dependent Effect
Activity (Mus musculus [16]): Dose-Dependent Effect
half-life [17]: 50.4 min
Vz [18]: 3.29201 L/kg
CL [19]: 45.8798 mL/min/kg
Kp at 1 h [20]: 0.57
inhibition (Mus musculus [21]): Dose-Dependent Effect
AUC(0-inf) [22]: 3650 ng·h/mL
Activity (Mus musculus [23]): Active
concentration at 0.5 h [24]: 223 ng/mL
AUC(0-t) at 8 h [25]: 921 ng·h/mL
Kp at 0.5 h [26]: 0.37
Activity (Mus musculus [27]): Active
Activity (Mus musculus [28]): Dose-Dependent Effect
MRT inf [29]: 15 min
microsomal CLint at 1 µM [30]: 15.6 µL/min/mg
Activity (Mus musculus [31]): Active
Activity (Mus musculus [32]): Active
Activity (Mus musculus [33]): Active
concentration at 0.5 h [34]: 83.1 ng/mL
AUC [35]: 928.07 ng·h/mL
Activity (Mus musculus [36]): Active
Cmax [37]: 2590 ng/mL
t1/2 [38]: 18.6 min
Activity (Mus musculus [39]): Dose-Dependent Effect
Activity (Mus musculus [40]): Active
bioavailability [41]: 39.6%
Tmax [42]: 15 min
Activity (Mus musculus [43]): Active
Activity (SH-SY5Y [44]): Dose-Dependent Effect
Activity (Mus musculus [45]): Active
Activity (Mus musculus [46]): Dose-Dependent Effect
concentration at 1 h [47]: 31.9 ng/mL
Activity (Mus musculus [48]): Active
MRT inf [49]: 52.8 min
Activity (Mus musculus [50]): Active
